Measurements taken from paper PMC7096246 (Journal of pharmaceutical sciences, 2020).
≈ marks a conversion by molar mass, not a printed value.

Experiments:
[1] = Water solubility measured in the current study; assay type: physicochemical
[2] = Saturation solubility in 50% FBS/PBS; assay type: physicochemical
[3] = ref DrugBank database, DB01229 and DB08889; cited from earlier work
[4] = cited from earlier work

| solubility at 24 h [1] [µg/mL] | solubility at 24 h [2] [µg/mL] | Compound | water solubility as reported in DrugBank [3] [µg/mL] | plasma protein binding [4] |
| --- | --- | --- | --- | --- |
| 1.3 ± 0.2 (≈ 1.81 µM) | 9.3 ± 0.2 (≈ 12.9 µM) | CC(C)C[C@H](NC(=O)[C@H](CCc1ccccc1)NC(=O)CN1CCOCC1)C(=O)N[C@@H](Cc1ccccc1)C(=O)N[C@@H](CC(C)C)C(=O)[C@@]1(C)CO1 [CFZ, carfilzomib] | 4.8 (≈ 6.67 µM) | 98% |
| – | – | CC(=O)O[C@H]1C(=O)[C@@]2(C)[C@H]([C@H](OC(=O)c3ccccc3)[C@]3(O)C[C@H](OC(=O)[C@H](O)[C@@H](NC(=O)c4ccccc4)c4ccccc4)C(C)=C1C3(C)C)[C@]1(OC(C)=O)CO[C@@H]1C[C@@H]2O [PTX, paclitaxel] | – | 88-98% |
